In patent US7763663B2, “Polysaccharide-containing block copolymer particles and uses thereof” (priority 2001, dated 2010):

Tested on: ear swelling
Settings: conventional form, 200 mg dose (highest dosage used), topical, after 6 hours of exposure, croton oil
Excerpt: Croton oil was applied to the left and right ears of five animals to cause inflammation. Two hours later, a nanoparticle preparation of Celebrex or conventional form of Celebrex® was applied topically to the left or right ear.

`Cc1ccc(-c2cc(C(F)(F)F)nn2-c2ccc(S(N)(=O)=O)cc2)cc1` [Celebrex® delivered in conventional form] was tested, and the “reduction in ear swelling” value was 60%.
